From US9518061B2, “Substituted pyrazolylpyrazole derivative and use of same as herbicide” (KYOYU AGRI CO., LTD., priority 2013, dated 2016) come the findings set out here.

Holding throughout (format): in vivo
One data set concerns Rice plants. The data set is described as follows: Paddy herbicidal activity test, phytotoxicity to transplanted rice. The following applies: rice transplanted in 2.0 leaf stage, 30 days. How it is done: (§1) 1. Paddy Herbicidal Activity Test
(§2) Rice paddy soil was filled into a 1/10000 are pot followed by the addition of suitable amounts of water and chemical fertilizer, kneading, seeding with Echinochloa crus-galli, Monochoria vaginalis and Scirpus juncoides and maintaining in an irrigated state at a water depth of 3 cm.
(§3) Wettable powder of Target Compound (I) shown in Table 1 prepared in compliance with the preparation examples were diluted with a suitable amount of water, rice plants in the 2.0 leaf stage were transplanted during 3.5 leaf stage of Echinochloa crus-galli, and treated by dropping in chemical in the prescribed amount per are using a pipette.
(§4) After treating for 30 days in a glass greenhouse at an average atmospheric temperature of 30° C., the herbicidal efficacy thereof was investigated.
(§5) Evaluation of herbicidal efficacy was carried out by comparing growth inhibition rate (%) with an untreated group, while evaluation of phytotoxicity was carried out by comparing growth inhibition rate (%) with the state of a complete eradication group, and were evaluated at 11 levels indicated below.

The next data set deals with Monochoria vaginalis. As to the kind of experiment: Paddy herbicidal activity test. The following applies: irrigated paddy pot, 30 days. The method, then:
as §1, §2, §3, §4, §5

The subject of another data set is Scirpus juncoides. The data set is described as follows: Paddy herbicidal activity test. Particulars: irrigated paddy pot, 30 days. The method, then:
as §1, §2, §3, §4, §5

A further data set concerns Echinochloa crus-galli. The data set is described as follows: Paddy herbicidal activity test. The following applies: irrigated paddy pot, treated at 3.5 leaf stage of Echinochloa crus-galli, 30 days. How it is done:
as §1, §2, §3, §4, §5

Turning to `N#Cc1cnn(-c2nn3c(c2Cl)CCCC3)c1N(CCCCl)C(=O)C(F)(F)F` [Compound 3], the “phytotoxicity (growth inhibition rate level) Rice plants” value in the data set with Rice plants (1g a.i./10a) and in the data set with Rice plants (5g a.i./10a) was 1 (10% to less than 20%) each time. Moreover, the results for the “herbicidal efficacy (growth inhibition rate level) Monochoria vaginalis” value with Monochoria vaginalis (1g a.i./10a) and in the data set with Monochoria vaginalis (5g a.i./10a) were 7 (70% to less than 80%) and 8 (80% to less than 90%), respectively. Also, the “herbicidal efficacy (growth inhibition rate level) Scirpus juncoides” value in the data set with Scirpus juncoides (1g a.i./10a) and in the data set on Scirpus juncoides (5g a.i./10a) was 8 (80% to less than 90%) throughout. The “herbicidal efficacy (growth inhibition rate level) Echinochloa crus-galli” value is given as 8 (80% to less than 90%) with Echinochloa crus-galli (1g a.i./10a) and 9 (90% to less than 100%) in the data set on Echinochloa crus-galli (5g a.i./10a).
Turning to `N#Cc1cnn(-c2nn3c(c2Cl)CCCC3)c1N(CCC(F)(F)F)C(=O)C(F)(F)F` [Compound 4], the “phytotoxicity (growth inhibition rate level) Rice plants” value in the data set on Rice plants (1g a.i./10a) and with Rice plants (5g a.i./10a) was 0 (0 (exponent): 0% to less than 10% (growth inhibition rate)) in each case. Moreover, the “herbicidal efficacy (growth inhibition rate level) Monochoria vaginalis” value with Monochoria vaginalis (1g a.i./10a) and in the data set with Monochoria vaginalis (5g a.i./10a) was 8 (80% to less than 90%) throughout. Also, the “herbicidal efficacy (growth inhibition rate level) Scirpus juncoides” value with Scirpus juncoides (1g a.i./10a) and with Scirpus juncoides (5g a.i./10a) was 9 (90% to less than 100%) each time. For the same compound, the “herbicidal efficacy (growth inhibition rate level) Echinochloa crus-galli” value in the data set with Echinochloa crus-galli (1g a.i./10a) is recorded as 9 (90% to less than 100%); with Echinochloa crus-galli (5g a.i./10a), 10 (100%).
In the case of `CCOCCN(C(=O)C(F)(F)F)c1c(C#N)cnn1-c1nn2c(c1Cl)CCCC2` [Compound 5], the “phytotoxicity (growth inhibition rate level) Rice plants” value was 0 (0 (exponent): 0% to less than 10% (growth inhibition rate)) in the data set with Rice plants (1g a.i./10a) and 1 (10% to less than 20%) with Rice plants (5g a.i./10a). The “herbicidal efficacy (growth inhibition rate level) Monochoria vaginalis” value with Monochoria vaginalis (1g a.i./10a) and in the data set with Monochoria vaginalis (5g a.i./10a) was 8 (80% to less than 90%) in each case. Moreover, the “herbicidal efficacy (growth inhibition rate level) Scirpus juncoides” value with Scirpus juncoides (1g a.i./10a) is 8 (80% to less than 90%); in the data set with Scirpus juncoides (5g a.i./10a), 9 (90% to less than 100%). In addition, the “herbicidal efficacy (growth inhibition rate level) Echinochloa crus-galli” value in the data set with Echinochloa crus-galli (1g a.i./10a) and in the data set on Echinochloa crus-galli (5g a.i./10a) was 9 (90% to less than 100%) in each case.
For the compound `COCCCN(C(=O)C(F)(F)F)c1c(C#N)cnn1-c1nn2c(c1Cl)CCCC2` [Compound 6], the “phytotoxicity (growth inhibition rate level) Rice plants” value in the data set on Rice plants (1g a.i./10a) and in the data set on Rice plants (5g a.i./10a) was 0 (0 (exponent): 0% to less than 10% (growth inhibition rate)) in each case. The figures for the “herbicidal efficacy (growth inhibition rate level) Monochoria vaginalis” value in the data set on Monochoria vaginalis (1g a.i./10a) and with Monochoria vaginalis (5g a.i./10a) were 8 (80% to less than 90%) and 9 (90% to less than 100%), respectively. The “herbicidal efficacy (growth inhibition rate level) Scirpus juncoides” value is given as 7 (70% to less than 80%) in the data set on Scirpus juncoides (1g a.i./10a) and 8 (80% to less than 90%) with Scirpus juncoides (5g a.i./10a). Further, the “herbicidal efficacy (growth inhibition rate level) Echinochloa crus-galli” value in the data set on Echinochloa crus-galli (1g a.i./10a) was 9 (90% to less than 100%); with Echinochloa crus-galli (5g a.i./10a) it was 10 (100%).
On to `N#Cc1cnn(-c2nn3c(c2Cl)CCCC3)c1N(CCC(F)(F)F)C(=O)C(F)(F)C(F)(F)F` [Compound 7], for which the “phytotoxicity (growth inhibition rate level) Rice plants” value in the data set with Rice plants (1g a.i./10a) and with Rice plants (5g a.i./10a) was 0 (0 (exponent): 0% to less than 10% (growth inhibition rate)) in each case. The “herbicidal efficacy (growth inhibition rate level) Monochoria vaginalis” value was 7 (70% to less than 80%) in the data set with Monochoria vaginalis (1g a.i./10a) and 9 (90% to less than 100%) with Monochoria vaginalis (5g a.i./10a). Also, the “herbicidal efficacy (growth inhibition rate level) Scirpus juncoides” value with Scirpus juncoides (1g a.i./10a) and with Scirpus juncoides (5g a.i./10a) was 8 (80% to less than 90%) each time. Also, the “herbicidal efficacy (growth inhibition rate level) Echinochloa crus-galli” value in the data set with Echinochloa crus-galli (1g a.i./10a) and with Echinochloa crus-galli (5g a.i./10a) was 9 (90% to less than 100%) each time.
As for `N#Cc1cnn(-c2nn3c(c2Cl)CCCC3)c1N(CC(F)(F)F)C(=O)C(F)(F)F` [Compound 8], the “phytotoxicity (growth inhibition rate level) Rice plants” value in the data set on Rice plants (1g a.i./10a) and in the data set on Rice plants (5g a.i./10a) was 0 (0 (exponent): 0% to less than 10% (growth inhibition rate)) each time. Moreover, the “herbicidal efficacy (growth inhibition rate level) Monochoria vaginalis” value in the data set on Monochoria vaginalis (1g a.i./10a) and in the data set on Monochoria vaginalis (5g a.i./10a) was 9 (90% to less than 100%) each time. For the same compound, the “herbicidal efficacy (growth inhibition rate level) Scirpus juncoides” value with Scirpus juncoides (1g a.i./10a) is given as 9 (90% to less than 100%); in the data set on Scirpus juncoides (5g a.i./10a), 10 (100%). Besides, the “herbicidal efficacy (growth inhibition rate level) Echinochloa crus-galli” value is given as 8 (80% to less than 90%) in the data set with Echinochloa crus-galli (1g a.i./10a) and 9 (90% to less than 100%) with Echinochloa crus-galli (5g a.i./10a).
As for `COCCN(C(=O)C(F)(F)F)c1c(C#N)cnn1-c1nn2c(c1Br)CCCC2` [Compound 13], the “phytotoxicity (growth inhibition rate level) Rice plants” value was 0 (0 (exponent): 0% to less than 10% (growth inhibition rate)) in the data set on Rice plants (1g a.i./10a) and 1 (10% to less than 20%) in the data set on Rice plants (5g a.i./10a). Further, the figures for the “herbicidal efficacy (growth inhibition rate level) Monochoria vaginalis” value with Monochoria vaginalis (1g a.i./10a) and in the data set with Monochoria vaginalis (5g a.i./10a) were 8 (80% to less than 90%) and 9 (90% to less than 100%), respectively. In addition, the “herbicidal efficacy (growth inhibition rate level) Scirpus juncoides” value in the data set on Scirpus juncoides (1g a.i./10a) is listed as 7 (70% to less than 80%); with Scirpus juncoides (5g a.i./10a), 8 (80% to less than 90%). Also, the “herbicidal efficacy (growth inhibition rate level) Echinochloa crus-galli” value with Echinochloa crus-galli (1g a.i./10a) and with Echinochloa crus-galli (5g a.i./10a) was 9 (90% to less than 100%) in each case.
Regarding `CCOCCN(C(=O)C(F)(F)F)c1c(C#N)cnn1-c1nn2c(c1Br)CCCC2` [Compound 14], the “phytotoxicity (growth inhibition rate level) Rice plants” value in the data set on Rice plants (1g a.i./10a) and with Rice plants (5g a.i./10a) was 1 (10% to less than 20%) in each case. The “herbicidal efficacy (growth inhibition rate level) Monochoria vaginalis” value in the data set on Monochoria vaginalis (1g a.i./10a) is listed as 7 (70% to less than 80%); with Monochoria vaginalis (5g a.i./10a), 8 (80% to less than 90%). Also, the “herbicidal efficacy (growth inhibition rate level) Scirpus juncoides” value was 8 (80% to less than 90%) in the data set with Scirpus juncoides (1g a.i./10a) and 9 (90% to less than 100%) in the data set on Scirpus juncoides (5g a.i./10a). In addition, the “herbicidal efficacy (growth inhibition rate level) Echinochloa crus-galli” value in the data set with Echinochloa crus-galli (1g a.i./10a) and in the data set with Echinochloa crus-galli (5g a.i./10a) was 9 (90% to less than 100%) in each case.
For the compound `COCCCN(C(=O)C(F)(F)F)c1c(C#N)cnn1-c1nn2c(c1Br)CCCC2` [Compound 15], the “phytotoxicity (growth inhibition rate level) Rice plants” value in the data set with Rice plants (1g a.i./10a) is listed as 0 (0 (exponent): 0% to less than 10% (growth inhibition rate)); in the data set on Rice plants (5g a.i./10a), 1 (10% to less than 20%). The “herbicidal efficacy (growth inhibition rate level) Monochoria vaginalis” value in the data set with Monochoria vaginalis (1g a.i./10a) and in the data set on Monochoria vaginalis (5g a.i./10a) was 8 (80% to less than 90%) each time. Also, the “herbicidal efficacy (growth inhibition rate level) Scirpus juncoides” value is on record as 8 (80% to less than 90%) in the data set on Scirpus juncoides (1g a.i./10a) and 9 (90% to less than 100%) in the data set with Scirpus juncoides (5g a.i./10a). Moreover, the results for the “herbicidal efficacy (growth inhibition rate level) Echinochloa crus-galli” value with Echinochloa crus-galli (1g a.i./10a) and with Echinochloa crus-galli (5g a.i./10a) were 9 (90% to less than 100%) and 10 (100%), respectively.
As for `N#Cc1cnn(-c2nn3c(c2Br)CCCC3)c1N(CCCCl)C(=O)C(F)(F)F` [Compound 17], the “phytotoxicity (growth inhibition rate level) Rice plants” value with Rice plants (1g a.i./10a) and in the data set on Rice plants (5g a.i./10a) was 0 (0 (exponent): 0% to less than 10% (growth inhibition rate)) in each case. The “herbicidal efficacy (growth inhibition rate level) Monochoria vaginalis” value in the data set on Monochoria vaginalis (1g a.i./10a) and with Monochoria vaginalis (5g a.i./10a) was 9 (90% to less than 100%) in each case. For the same compound, the “herbicidal efficacy (growth inhibition rate level) Scirpus juncoides” value is 7 (70% to less than 80%) with Scirpus juncoides (1g a.i./10a) and 8 (80% to less than 90%) with Scirpus juncoides (5g a.i./10a). For the same compound, the “herbicidal efficacy (growth inhibition rate level) Echinochloa crus-galli” value with Echinochloa crus-galli (1g a.i./10a) and in the data set on Echinochloa crus-galli (5g a.i./10a) was 8 (80% to less than 90%) each time.
In the case of `N#Cc1cnn(-c2nn3c(c2Br)CCCC3)c1N(CCC(F)(F)F)C(=O)C(F)(F)F` [Compound 18], the “phytotoxicity (growth inhibition rate level) Rice plants” value with Rice plants (1g a.i./10a) is reported as 0 (0 (exponent): 0% to less than 10% (growth inhibition rate)); with Rice plants (5g a.i./10a), 1 (10% to less than 20%). Besides, the “herbicidal efficacy (growth inhibition rate level) Monochoria vaginalis” value in the data set on Monochoria vaginalis (1g a.i./10a) was 7 (70% to less than 80%); in the data set on Monochoria vaginalis (5g a.i./10a), 8 (80% to less than 90%). Moreover, the “herbicidal efficacy (growth inhibition rate level) Scirpus juncoides” value in the data set with Scirpus juncoides (1g a.i./10a) and in the data set on Scirpus juncoides (5g a.i./10a) was 9 (90% to less than 100%) in each case. Further, the entries for the “herbicidal efficacy (growth inhibition rate level) Echinochloa crus-galli” value in the data set on Echinochloa crus-galli (1g a.i./10a) and in the data set with Echinochloa crus-galli (5g a.i./10a) were 9 (90% to less than 100%) and 10 (100%), respectively.
